The values below come from ChEMBL document CHEMBL1136919, “Synthesis and P2Y receptor activity of nucleoside 5'-phosphonate derivatives” (Bioorg Med Chem Lett, 2009).

Type in all cases: functional, cell-based
The target of assay [1] is T1, P2Y purinoceptor 2 (Homo sapiens, UniProt P41231). Put plainly: Agonist activity at human P2Y2 receptor expressed in human 1321N1 cells coexpressing phospholipase C-activating G protein assessed as inositol phosphate production by scintillation proximity assay. Background: SPA uses beads or plates that emit light when radiolabelled molecules are held near them.
T1 sequence (P41231 whole entry): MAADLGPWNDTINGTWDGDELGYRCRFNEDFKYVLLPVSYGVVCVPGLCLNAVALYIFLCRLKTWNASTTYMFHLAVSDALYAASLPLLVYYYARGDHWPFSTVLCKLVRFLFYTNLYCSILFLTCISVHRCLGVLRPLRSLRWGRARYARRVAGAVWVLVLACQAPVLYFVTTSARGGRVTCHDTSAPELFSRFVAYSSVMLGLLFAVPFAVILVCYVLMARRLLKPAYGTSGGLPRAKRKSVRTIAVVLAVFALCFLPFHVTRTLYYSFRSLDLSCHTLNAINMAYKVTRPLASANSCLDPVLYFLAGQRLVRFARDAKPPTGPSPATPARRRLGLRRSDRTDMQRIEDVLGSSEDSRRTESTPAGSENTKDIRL
For assay [2], the target named is T1, P2Y purinoceptor 2. In words: Agonist activity at human P2Y2 receptor expressed in human 1321N1 cells coexpressing phospholipase C-activating G protein assessed as inositol phosphate production at 10 uM by scintillation proximity assay.
The target in assay [3] is P2Y purinoceptor 4 (Homo sapiens) (UniProt P51582). In words: Agonist activity at human P2Y4 receptor expressed in human 1321N1 cells coexpressing phospholipase C-activating G protein assessed as inositol phosphate production at 10 uM by scintillation proximity assay.
P2Y purinoceptor 4 (Homo sapiens), sequence (P51582 whole entry): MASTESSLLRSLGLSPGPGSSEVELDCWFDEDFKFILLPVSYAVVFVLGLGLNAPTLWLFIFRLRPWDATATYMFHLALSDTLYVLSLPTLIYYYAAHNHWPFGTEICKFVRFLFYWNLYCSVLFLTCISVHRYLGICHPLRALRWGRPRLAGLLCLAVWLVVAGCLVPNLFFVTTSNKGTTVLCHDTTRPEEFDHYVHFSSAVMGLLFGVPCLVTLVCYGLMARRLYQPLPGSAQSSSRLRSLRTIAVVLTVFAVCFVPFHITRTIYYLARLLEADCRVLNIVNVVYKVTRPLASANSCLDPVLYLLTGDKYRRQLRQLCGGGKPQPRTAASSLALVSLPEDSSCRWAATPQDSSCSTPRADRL
Assay [4] concerns the target T1, P2Y purinoceptor 2. In words: Agonist activity at human P2Y2 receptor expressed in human 1321N1 cells coexpressing phospholipase C-activating G protein assessed as inositol phosphate production by scintillation proximity assay relative to UTP.
For assay [5], the target named is T2, P2Y purinoceptor 6 (Homo sapiens, UniProt Q15077). Put plainly: Agonist activity at human P2Y6 receptor expressed in human 1321N1 cells coexpressing phospholipase C-activating G protein assessed as inositol phosphate production by scintillation proximity assay.
T2 sequence (Q15077 whole entry): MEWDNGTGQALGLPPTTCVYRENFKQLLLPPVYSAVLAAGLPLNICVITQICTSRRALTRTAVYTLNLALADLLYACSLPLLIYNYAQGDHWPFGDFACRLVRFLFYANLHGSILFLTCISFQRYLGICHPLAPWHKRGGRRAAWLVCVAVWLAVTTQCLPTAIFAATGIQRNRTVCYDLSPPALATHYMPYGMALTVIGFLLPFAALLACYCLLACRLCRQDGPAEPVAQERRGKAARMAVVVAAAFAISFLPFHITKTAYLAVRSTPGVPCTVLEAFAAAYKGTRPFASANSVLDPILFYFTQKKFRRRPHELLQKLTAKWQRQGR
For assay [6], the target named is T2, P2Y purinoceptor 6. In words: Agonist activity at human P2Y6 receptor expressed in human 1321N1 cells coexpressing phospholipase C-activating G protein assessed as inositol phosphate production at 10 uM by scintillation proximity assay.

`O=c1ccn([C@@H]2O[C@H](CP(=O)(O)OP(=O)(O)OP(=O)(O)O)[C@@H](O)[C@H]2O)c(=O)[nH]1`: the EC50 (commonly the midpoint of the concentration-response curve) in assay [1] was determined as 8.6 µM.

With `O=c1ccn([C@@H]2O[C@H](COP(=O)(O)OP(=O)(O)C[C@H]3O[C@@H](n4ccc(=O)[nH]c4=O)[C@H](O)[C@@H]3O)[C@@H](O)[C@H]2O)c(=O)[nH]1`, the Emax (in general, the maximal effect, on the per cent scale that the assay sets) in assay [2] is less than 50%.

Take `Nc1ncnc2c1ncn2[C@@H]1O[C@H](CP(=O)(O)OP(=O)(O)OP(=O)(O)O)[C@@H](O)[C@H]1O`: the Emax in assay [3] was less than 50%. In addition, the concentration for a half-maximal effect (EC50) in assay [1] came out at 1.4 µM.

On to `O=c1ccn([C@@H]2O[C@H](CCP(=O)(O)O)[C@@H](O)[C@H]2O)c(=O)[nH]1`, for which the EC50 in assay [1] is 1.6 µM. Also, the Activity in assay [4] is less than 50%.

With `O=c1ccn([C@@H]2O[C@H](/C=C/P(=O)(O)OP(=O)(O)OP(=O)(O)O)[C@@H](O)[C@H]2O)c(=O)[nH]1`, in assay [3], the Emax was less than 50%. In addition, the EC50 in assay [1] stood at 1 µM.

For the compound `O=c1ccn([C@@H]2O[C@H](CP(=O)(O)OP(=O)(O)O)[C@@H](O)[C@H]2O)c(=O)[nH]1`, the EC50 in assay [1] is 3.4 µM; in assay [5] it was 1.9 µM. For the same compound, in assay [4], the Activity was determined as 50%.

Take `O=c1ccn([C@@H]2O[C@H](COP(=O)(O)OP(=O)(O)OP(=O)(O)O)[C@@H](O)[C@H]2O)c(=O)[nH]1`: in assay [6], the EC50 was greater than 10 µM.
